From ChEMBL document CHEMBL6177959, “Design, synthesis and evaluation of novel carboline-triazole hybrids as promising antimalarial agents” (Eur J Med Chem, 2025) come the findings set out here.

Assay type in all cases: functional
Assay [1] has as its system Plasmodium yoelii. Put plainly: Antimalarial activity against Plasmodium yoelii N67 infected in female Swiss mouse model assessed as mean survival time at 20 mg/kg administered orally. As to conditions: route po.
The subject of assay [2] is Plasmodium yoelii. Nature of the assay: Antimalarial activity against Plasmodium yoelii N67 infected in female Swiss mouse model assessed as suppression in parasitic growth at 10 mg/kg, po measured on day 7 relative to control. The conditions noted are these: time 7 day.
Assay [3] deals with Plasmodium yoelii. Nature of the assay: Antimalarial activity against Plasmodium yoelii N67 infected in female Swiss mouse model assessed as suppression in parasitic growth at 10 mg/kg, po measured on day 4 relative to control. The conditions noted are these: time 4 day.
In assay [4] the test system is Plasmodium yoelii. Put plainly: Antimalarial activity against Plasmodium yoelii N67 infected in female Swiss mouse model assessed as parasite survival at 20 mg/kg, po measured after 7 days relative to control. As to conditions: N67, 168 h, time 7 day.
Assay [5] has as its system Plasmodium yoelii. Put plainly: Antimalarial activity against Plasmodium yoelii N67 infected in female Swiss mouse model assessed as mean survival time at 10 mg/kg administered orally. The conditions noted are these: route po.
In assay [6] the test system is Plasmodium yoelii. Nature of the assay: Antimalarial activity against Plasmodium yoelii N67 infected in female Swiss mouse model assessed as suppression in parasitic growth at 20 mg/kg, po measured on day 4 relative to control.
Assay [7] has as its system Plasmodium yoelii. Nature of the assay: Antimalarial activity against Plasmodium yoelii N67 infected in female Swiss mouse model assessed as suppression in parasitic growth at 20 mg/kg, po measured on day 7 relative to control.

Turning to `CCN(CC)CCCC(C)Nc1ccnc2cc(Cl)ccc12` (configuration not stated) [CHLOROQUINE], the MST was over 28 days in assay [1] and 16 days in assay [5]. Also, the Activity in assay [2] is recorded as 88%; in assay [3] it was 97.8%; in assay [6], 99%; in assay [7], 91%. In assay [4], the survival at 20 mg/kg stood at 60%.
